Test results reported in patent publication US11629139B2 (priority 2017, dated 2023).

Test system: vesicular stomatitis virus particles (VSV) pseudotyped with EboV Zaire GP
Assay: microbe, parasite or virus in culture
Type: cell-based
Settings: Vesicular stomatitis virus

Row | SMILES | IC50
1 | COC(=O)c1ccc(COc2ccc(F)cc2CN2CCN(C(=O)CNC(=O)CC3CCC(F)(F)CC3)CC2)cc1 [Compound 1335, Methyl 4-((2-((4-((2-(4,4-difluorocyclohexyl)acetyl)glycyl)piperazin-1-yl)methyl)-4-fluorophenoxy)methyl)benzoate] | 18 nM
2 | O=C(Cc1cccc2ccccc12)NCC(=O)N1CCN(Cc2ccccc2OCc2ccc(Br)cc2)CC1 [Compound 1136] | > 2000 nM
3 | CNc1ccc(Cl)cc1CN1CCN(C(=O)CNC(=O)C2CC23CCC(F)(F)CC3)CC1 (stereo not drawn) [Compound 1391, N-(2-(4-(5-Chloro-2-(methylamino)benzyl)piperazin-1-yl)-2-oxoethyl)-6,6-difluorospiro[2.5]octane-1-carboxamide] | 80 to 260 nM
4 | CS(=O)(=O)c1ccc(COc2ccc(Cl)cc2CN2CCN(C(=O)CNC(=O)C3CC34CCC(F)(F)CC4)CC2)nc1 (stereo not drawn) [Compound 1621, 6,6-Difluoro-spiro[2.5]octane-1-carboxylic acid (2-{4-[5-chloro-2-(5-methanesulfonyl-pyridin-2-ylmethoxy)-benzyl]-piperazin-1-yl}-2-oxo-ethyl)-amide] | 30 nM
5 | O=C(CC12CC3CC(CC(C3)C1)C2)NCC(=O)N1CCN(Cc2cc(Cl)ccc2OC(F)(F)F)CC1 [Compound 1309, 2-((1R,3R,5S)-Adamantan-1-yl)-N-(2-(4-(5-chloro-2-(trifluoromethoxy)benzyl)piperazin-1-yl)-2-oxoethyl)acetamide] | 420 nM
6 | COC(=O)c1ccc(COc2ccc(Br)cc2CN2CCN(C(=O)CNC(=O)CC34CC5CC(CC(C5)C3)C4)CC2)cc1 [Compound 1111] | 13 nM
7 | COC(=O)c1ccc(COc2ccc(C)cc2CN2CCN(C(=O)CNC(=O)CC34CC5CC(CC(C5)C3)C4)CC2)cc1 [Compound 1114] | < 2000 nM
8 | COC(=O)c1ccc(COc2ccccc2CN2CCN(C(=O)CNC(=O)C3(F)CC3)CC2)cc1 [Compound 1376, Methyl 4-((2-((4-((1-fluorocyclopropane-1-carbonyl)glycyl)piperazin-1-yl)methyl)phenoxy)methyl)benzoate] | > 2000 nM
9 | CC1(CC(=O)NCC(=O)N2CCN(Cc3cc(Cl)cc4cccnc34)CC2)CCOCC1 [Compound 1424] | 2800 nM
10 | O=C(CC12CC3CC(CC(Cl)(C3)C1)C2)NCC(=O)N1CCN(Cc2ccccc2OCc2ccc(Br)cc2)CC1 [Compound 1243] | 500 nM
11 | CC(C)(CC(=O)NCC(=O)N1CCN(Cc2ccccc2OCc2ccc(Br)cc2)CC1)C1CCCCC1 [Compound 1138] | > 2000 nM
12 | COC(=O)c1ccc(COc2ccc(C#N)cc2CN2CCN(C(=O)CNC(=O)CC34CC5CC(CC(C5)C3)C4)CC2)cc1 [Compound 1117] | 50 nM
13 | O=C(CC12CC3CC(CC(C3)C1)C2)NCC(=O)N1CCN(Cc2cc(Cl)cc(C(F)(F)F)c2)CC1 [Compound 1326, 2-((1R,3R,5S)-Adamantan-1-yl)-N-(2-(4-(3-chloro-5-(trifluoromethyl)benzyl)piperazin-1-yl)-2-oxoethyl)acetamide] | 920 nM
14 | Nc1ccc(Br)cc1CN1CCN(C(=O)CNC(=O)C2C3CC(F)(F)CC32)CC1 (stereo not drawn) [Compound 1362, N-(2-(4-(2-Amino-5-bromobenzyl)piperazin-1-yl)-2-oxoethyl)-3,3-difluorobicyclo[3.1.0]hexane-6-carboxamide] | > 2000 nM
15 | COC(=O)c1ccc(COc2ccccc2CN2CCN(C(=O)CNC(=O)CC3CC(F)(F)C3)CC2)cc1 [Compound 1315, Methyl 4-((2-((4-((2-(3,3-difluorocyclobutyl)acetyl)glycyl)piperazin-1-yl)methyl)phenoxy)methyl)benzoate] | 400 nM
16 | COC(=O)c1ccc(COc2ccc(Cl)cc2CN2CCN(C(=O)CNC(=O)CC3(C)CCCCC3)CC2)cc1 [Compound 1334, Methyl 4-((4-chloro-2-((4-((2-(1-methylcyclohexyl)acetyl)glycyl)piperazin-1-yl)methyl)phenoxy)methyl)benzoate] | 19 nM
17 | O=C(CC1CCC(F)(F)CC1)NCC(=O)N1CCN(Cc2cc(Cl)cc(Cl)c2O)CC1 [Compound 1401, N-(2-(4-(3,5-Dichloro-2-hydroxybenzyl)piperazin-1-yl)-2-oxoethyl)-2-(4,4-difluorocyclohexyl)acetamide] | 3700 nM
18 | CC(=O)N1CCCC(Oc2cc(F)cc(CN3CCN(C(=O)CNC(=O)C4CC45CCC(F)(F)CC5)CC3)c2)C1 (stereo not drawn) [Compound 1453] | > 5000 nM
19 | Nc1cc(Cl)cc(CN2CCN(C(=O)CNC(=O)C3CC34CCC(F)(F)CC4)CC2)c1 (stereo not drawn) [Compound 1388, N-(2-(4-(3-Amino-5-chlorobenzyl)piperazin-1-yl)-2-oxoethyl)-6,6-difluorospiro[2.5]octane-1-carboxamide] | 500 nM

Row | SMILES | IC50
20 | [2H]C([2H])(c1cc(Cl)ccc1NCc1ccc(S(C)(=O)=O)cc1F)N1CCN(C(=O)CNC(=O)[C@@H]2CC23CCC(F)(F)CC3)CC1 [Compound 1562] | 13 nM
21 | O=C(CC12CC3CC(CC(C3)C1)C2)NCC(=O)N1CCN(Cc2cc(Cl)cc(Br)c2)CC1 [Compound 1332, 2-((1R,3R,5S)-Adamantan-1-yl)-N-(2-(4-(3-bromo-5-chlorobenzyl)piperazin-1-yl)-2-oxoethyl)acetamide] | 900 nM
22 | N#Cc1ccc(Br)cc1CN1CCN(C(=O)CNC(=O)CC23CC4CC(CC(C4)C2)C3)CC1 [Compound 1329, 2-((1R,3R,5S)-Adamantan-1-yl)-N-(2-(4-(5-bromo-2-cyanobenzyl)piperazin-1-yl)-2-oxoethyl)acetamide] | 310 nM
23 | [2H]C([2H])(c1cc(Cl)ccc1NCc1ccc(C(=O)OC)cn1)N1CCN(C(=O)CNC(=O)C2CC23CCC(F)(F)CC3)CC1 (stereo not drawn) [Compound 1548, 6-{[4-Chloro-2-(4-{2-[(6,6-difluoro-spiro[2.5]octane-1-carbonyl)-amino]-acetyl}-piperazin-1-yl-di-deutero-methyl)-phenylamino]-methyl}-nicotinic acid methyl ester] | 7 nM
24 | O=C(CC12CC3CC(CC(Br)(C3)C1)C2)NCC(=O)N1CCN(Cc2ccccc2OCc2ccc(Br)cc2)CC1 [Compound 1245] | 600 nM
25 | [2H]C([2H])(c1cc(Cl)cc2cc[nH]c12)N1CCN(C(=O)CNC(=O)CC2CCC(F)(F)CC2)CC1 [Compound 1433, N-(2-(4-((5-Chloro-JH-indol-7-yl)methyl-d2)piperazin-1-yl)-2-oxoethyl)-2-(4,4-difluorocyclohexyl)acetamide] | > 5000 nM
26 | Nc1c(Cl)cc(Cl)cc1CN1CCN(C(=O)CNC(=O)CC23CC4CC(CC(C4)C2)C3)CC1 [Compound 1349, 2-((1R,3R,5S)-Adamantan-1-yl)-N-(2-(4-(2-amino-3,5-dichlorobenzyl)piperazin-1-yl)-2-oxoethyl)acetamide] | 500 nM
27 | O=C(NCC(=O)N1CCN(Cc2cc(Cl)cc3cccnc23)CC1)C1CC12CCC(F)(F)CC2 (stereo not drawn) [Compound 1405, N-(2-(4-((6-Chloroquinolin-8-yl)methyl)piperazin-1-yl)-2-oxoethyl)-6,6-difluorospiro[2.5]octane-1-carboxamide] | 70 to 260 nM
28 | COC(=O)c1ccc(COc2ccccc2CN2CCN(C(=O)CNC(=O)Cc3ccc(F)cc3)CC2)cc1 [Compound 1312, Methyl 4-((2-((4-((2-(4-fluorophenyl)acetyl)glycyl)piperazin-1-yl)methyl)phenoxy)methyl)benzoate] | 600 nM
29 | O=C(NCC(=O)N1CCN(Cc2cc(Cl)cc3cn[nH]c23)CC1)C1CC12CCC(F)(F)CC2 (stereo not drawn) [Compound 1421, N-(2-(4-((5-Chloro-JH-indazol-7-yl)methyl)piperazin-1-yl)-2-oxoethyl)-6,6-difluorospiro[2.5]octane-1-carboxamide] | > 5000 nM
30 | O=C(CC12CC3CC(CC(C3)C1)C2)NCC(=O)N1CCN(Cc2cc(F)c(F)cc2O)CC1 [Compound 1324, 2-((1R,3R,5S)-Adamantan-1-yl)-N-(2-(4-(4,5-difluoro-2-hydroxybenzyl)piperazin-1-yl)-2-oxoethyl)acetamide] | 1500 nM
31 | O=C(CC12CC3CC(CC(C3)C1)C2)NCC(=O)N1CCN(Cc2c(Cl)cccc2Cl)CC1 [Compound 1363, 2-((1R,3R,5S)-Adamantan-1-yl)-N-(2-(4-(2,6-dichlorobenzyl)piperazin-1-yl)-2-oxoethyl)acetamide] | 1000 nM
32 | Nc1ncc(Cl)cc1CN1CCN(C(=O)CNC(=O)CC23CC4CC(CC(C4)C2)C3)CC1 [Compound 1304, 2-((1R,3R,5S)-Adamantan-1-yl)-N-(2-(4-((2-amino-5-chloropyridin-3-yl)methyl)piperazin-1-yl)-2-oxoethyl)acetamide] | > 1500 nM
33 | O=C(CC1CCC(F)(F)CC1)NCC(=O)N1CCN(Cc2cc(Cl)cc(Oc3ccncc3)c2)CC1 [Compound 1432, N-(2-(4-(3-Chloro-5-(pyridin-4-yloxy)benzyl)piperazin-1-yl)-2-oxoethyl)-2-(4,4-difluorocyclohexyl)acetamide] | 185 nM
34 | COC(=O)CCCOc1ccc(Cl)cc1CN1CCN(C(=O)CNC(=O)CC23CC4CC(CC(C4)C2)C3)CC1 [Compound 1303, Methyl 4-(2-((4-((2-((1R,3R,5S)-Adamantan-1-yl)acetyl)glycyl)piperazin-1-yl)methyl)-4-chlorophenoxy)butanoate] | ~2000 nM
35 | O=C(CC12CC3CC(CC(C3)C1)C2)NCC(=O)N1CCN(Cc2cc(F)cc(Br)c2)CC1 [Compound 1339, 2-((1R,3R,5S)-Adamantan-1-yl)-N-(2-(4-(3-bromo-5-fluorobenzyl)piperazin-1-yl)-2-oxoethyl)acetamide] | 1400 nM
36 | COC(=O)c1cccc(-c2cc(Cl)cc(CN3CCN(C(=O)CNC(=O)CC45CC6CC(C4)C(C6)C5)CC3)c2)c1 [Compound 1441] | 248 nM
37 | COC(=O)c1ccc(COc2ccccc2CN2CCN(C(=O)CNC(=O)CC3(C)CCCCC3)CC2)cc1 [Compound 1311, Methyl 4-((2-((4-((2-(1-methylcyclohexyl)acetyl)glycyl)piperazin-1-yl)methyl)phenoxy)methyl)benzoate] | 80 nM
38 | O=C(CC1CCC(F)(F)CC1)NCC(=O)N1CCN(Cc2cc(F)ccc2OCc2ccc3nonc3c2)CC1 [Compound 1456] | 190 nM

Same assay, conditions: read-out: IC50

Row | SMILES | IC50
39 | CC(=O)Nc1ccc(Cl)cc1CN1CCN(C(=O)CNC(=O)CC23CC4CC(CC(C4)C2)C3)CC1 [Compound 1342, N-(2-(4-(2-Acetamido-5-chlorobenzyl)piperazin-1-yl)-2-oxoethyl)-2-((3s)-adamantan-1-yl)acetamide] | 1100 nM
